This passage reports IC50 results from BindingDB's records for doi:10.1021/jm950369c (University of Arizona, 1996).

Each structure is given as a SMILES string.

The experiment can be described thus: Inhibition of [3H]c[D-Pen2,p-Cl-Phe4,D-Pen5]enkephalin binding to delta opioid receptor of guinea pig brain plasma membrane homogenates.
Turning to `CC[C@H](C)[C@H](NC(=O)[C@H](CCCNC(=N)N)NC(=O)[C@@H]1CCCCNC(=O)C[C@H](NC(=O)[C@@H](N)Cc2ccc(O)cc2)C(=O)NCC(=O)N[C@@H](Cc2ccccc2)C(=O)N[C@@H](CC(C)C)C(=O)N1)C(=O)N[C@@H](CCCNC(=N)N)C(=O)N1CCC[C@H]1C(=O)N[C@@H](CCCCN)C(N)=O` [Cyclic Lactam Peptide Analogues of Dynorphin A(1-11)-NH2Cyclic Lactam Peptide Analogues of Dynorphin A(1-11)-NH2], the half-maximal inhibitory concentration (IC50) came out at 12 nM. The result for `CC[C@H](C)[C@H](NC(=O)[C@H](CCCCN)NC(=O)[C@H](CCCNC(=N)N)NC(=O)[C@H](CC(C)C)NC(=O)[C@H](Cc1ccccc1)NC(=O)[C@@H](CC(=O)O)NC(=O)CNC(=O)[C@@H](N)Cc1ccc(O)cc1)C(=O)N[C@@H](CCCNC(=N)N)C(=O)N1CCC[C@H]1C(=O)N[C@@H](CCCCN)C(N)=O` [Cyclic Lactam Peptide Analogues of Dynorphin A(1-11)-NH2] reads 870 nM. The result for `CC[C@H](C)[C@H](NC(=O)[C@H](CCCNC(=N)N)NC(=O)[C@@H]1CCCCNC(=O)C[C@@H](NC(=O)[C@@H](N)Cc2ccc(O)cc2)C(=O)NCC(=O)N[C@@H](Cc2ccccc2)C(=O)N[C@@H](CC(C)C)C(=O)N1)C(=O)N[C@@H](CCCNC(=N)N)C(=O)N1CCC[C@H]1C(=O)N[C@@H](CCCCN)C(N)=O` [Cyclic Lactam Peptide Analogues of Dynorphin A(1-11)-NH2] reads 910 nM.
